Data from publication PMC6993587, “Detection of EXP1-Specific CD4+ T Cell Responses Directed Against a Broad Range of Epitopes Including Two Promiscuous MHC Class II Binders During Acute Plasmodium falciparum Malaria” (Frontiers in Immunology, 2020).
pIC50: −log10 of the molar value. Ends that are not written are not given here.

Legend:
Assay in all cases: In vitro HLA binding assay with purified HLA-DR molecules
[1] = molecular target: HLA-DR DRB1*13:02 (Homo sapiens, UniProt P01903+P01911, A100E/A169T/K41T/L162R/M171V/P40S/Q125H/Q178H/Q39Y/Q99D/R42S/S66N/T262R/V115G/W38E/Y61H); details: purified HLA-DR molecule; high affinity binding = IC50 <1,000 nM
Experimental: (§1) In vitro binding assays with 14 of the peptides that elicited a response were performed using purified HLA-DR molecules, as previously described (Table 3) ([37]). MHC class II in silico binding predictions were defined, using the IEDB analysis resource ([38]–[40]), combining predictions from the ANN ([41], [42]) and SMM ([43]) algorithms (Supplementary Table 2A).
(§2) To test this hypothesis, we measured the in vitro capacity of the most frequently recognized EXP1 peptides to bind to a panel of 17 of the most prevalent human HLA-DR molecules, since the majority of HLA class II restricted CD4+ T cell responses are presented by these molecules ([49], [50]). Peptides with an IC50 of 1,000 nM or lower, a threshold previously found associated with the vast majority of HLA class II-restricted T cell epitopes, were considered binders to the respective DR molecule ([51]–[53]). […] These include EXP1-P14 which bound to five, EXP1-P15 to 13, EXP1-P16 to 10 and EXP1-P17 to nine different HLA molecules (Table 3).

[2] = molecular target: HLA-DR DRB1*04:05 (Homo sapiens, UniProt P01903+P01911, A100R/A169T/D86S/F76Y/I96L/K127E/L162R/M171V/N62H/P40V/Q125Y/R42H/S133A/S149N/S66Y/V115G/V209L/W38E); details: purified HLA-DR molecule; high affinity binding = IC50 <1,000 nM
Experimental: as §1, §2

[3] = molecular target: HLA-DR DRB1*15:01 (Homo sapiens, UniProt P01903+P01911); details: purified HLA-DR molecule; high affinity binding = IC50 <1,000 nM
Experimental: as §1, §2

[4] = molecular target: HLA-DR DRB1*04:01 (Homo sapiens, UniProt P01903+P01911, A100K/A169T/F76Y/I96L/K127E/L162R/M171V/N62H/P40V/Q125Y/R42H/S133A/S149N/S66Y/V115G/V209L/W38E); details: purified HLA-DR molecule; high affinity binding = IC50 <1,000 nM
Experimental: as §1, §2

[5] = molecular target: HLA-DR DRB1*07:01 (Homo sapiens, UniProt P01903+P01911, A100R/A102G/A103Q/D57E/D86V/E43K/F76Y/K127E/L162R/M171V/P40G/Q125H/Q99D/R33Q/R42Y/R54Q/S133A/S66F/T210M/V115G/Y107V/Y59L/Y89S); details: purified HLA-DR molecule; high affinity binding = IC50 <1,000 nM
Experimental: as §1, §2

[6] = molecular target: HLA-DR DRB1*01:01 (Homo sapiens, UniProt P01903+P01911, A100R/D57E/F55L/F60I/F76Y/I96L/L162R/M171V/P40L/Q125E/R42F/V115G/Y59C); details: purified HLA-DR molecule; high affinity binding = IC50 <1,000 nM
Experimental: as §1, §2

[7] = molecular target: HLA-DR DRB3*02:02 (Homo sapiens, UniProt P01903+P79483, A212P/D57E/F66Y/L67A/R103Q/R218S/R40L/S89Y/T80R/V86D/Y55F/Y59H); details: purified HLA-DR molecule; high affinity binding = IC50 <1,000 nM
Experimental: as §1, §2

[8] = molecular target: HLA-DR DRB1*08:02 (Homo sapiens, UniProt P01903+P01911, A100R/A103L/A169T/F76Y/H45Y/I96F/K41T/L162R/M171V/P40S/Q125H/Q178H/Q39Y/Q99D/R218S/R42G/S66Y/V115G/W38E); details: purified HLA-DR molecule; high affinity binding = IC50 <1,000 nM
Experimental: as §1, §2

[9] = molecular target: HLA-DR DRB1*10:01 (Homo sapiens, UniProt P01903+P01911, A100R/A169T/D57E/F55L/F60V/F69Y/F76Y/I96L/L162R/M171V/P40V/Q260P/Q39E/Q99R/R195Q/R42F/S149N/S66Y/T210M/V115G/V67A/W38E/Y59R/Y61H); details: purified HLA-DR molecule; high affinity binding = IC50 <1,000 nM
Experimental: as §1, §2

[10] = molecular target: HLA-DR DRB1*11:01 (Homo sapiens, UniProt P01903+P01911, A100R/A169T/A87E/I96F/K41T/L162R/M171V/P40S/Q125H/Q178H/Q39Y/Q99D/R42S/S66Y/T262R/V115G/W38E); details: purified HLA-DR molecule; high affinity binding = IC50 <1,000 nM
Experimental: as §1, §2

[11] = molecular target: HLA-DR DRB1*13:01 (Homo sapiens, UniProt P01903+P01911, A100E/A169T/K41T/L162R/M171V/P40S/Q125H/Q178H/Q39Y/Q99D/R42S/S66N/T262R/W38E/Y61H); details: purified HLA-DR molecule; high affinity binding = IC50 <1,000 nM
Experimental: as §1, §2

[12] = molecular target: HLA-DR DRB3*01:01 (Homo sapiens, UniProt P01903+P79483); details: purified HLA-DR molecule; high affinity binding = IC50 <1,000 nM
Experimental: as §1, §2

[13] = molecular target: HLA-DR DRB5*01:01 (Homo sapiens, UniProt P01903+Q30154); details: purified HLA-DR molecule; high affinity binding = IC50 <1,000 nM
Experimental: as §1, §2

[14] = molecular target: HLA-DR DRB1*04:04 (Homo sapiens, UniProt P01903+P01911, A100R/A169T/F76Y/I96L/K127E/L162R/M171V/N62H/P40V/Q125Y/R42H/S133A/S149N/S66Y/V209L/W38E); details: purified HLA-DR molecule; high affinity binding = IC50 <1,000 nM
Experimental: as §1, §2

[15] = molecular target: HLA-DR DRB4*01:01 (Homo sapiens, UniProt P01903+P13762, G164S); details: purified HLA-DR molecule; high affinity binding = IC50 <1,000 nM
Experimental: as §1, §2

[16] = molecular target: HLA-DR DRB1*09:01 (Homo sapiens, UniProt P01903+P01911, A100R/A103E/D57H/D86V/F55Y/F60I/F76Y/I96F/K127E/L162R/M171V/P40D/Q125H/Q99R/R33Q/R42F/S133A/S66N/T210M/V115G/W38K/Y107V/Y59G/Y89S)
[17] = molecular target: HLA-DR DRB1*03:01 (Homo sapiens, UniProt P01903+P01911, A100K/A102G/A103R/A169T/F55Y/I96L/K41T/L162R/M171V/P40S/Q125H/Q178H/Q39Y/R42S/S66N/T106N/T262R/W38E/Y61H); details: purified HLA-DR molecule; high affinity binding = IC50 <1,000 nM
Experimental: as §1, §2

Chain of HLA-DR DRB1*03:01 (P01903 26-254, other chains not shown): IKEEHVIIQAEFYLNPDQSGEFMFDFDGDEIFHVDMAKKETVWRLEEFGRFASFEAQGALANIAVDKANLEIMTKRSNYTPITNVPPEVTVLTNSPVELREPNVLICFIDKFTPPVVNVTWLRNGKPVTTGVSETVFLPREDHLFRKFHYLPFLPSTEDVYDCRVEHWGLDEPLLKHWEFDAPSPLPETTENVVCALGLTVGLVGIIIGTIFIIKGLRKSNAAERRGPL
Chain of HLA-DR DRB1*11:01 (P01903 26-254 limits assumed, other chains not shown): as the sequence (P01903 26-254, other chains not shown) above
Chain of HLA-DR DRB3*02:02 (P01903 26-254 limits assumed): as the sequence (P01903 26-254, other chains not shown) above
Chain of HLA-DR DRB3*02:02 (P79483 30-266 R40L/Y55F/D57E/Y59H/F66Y/L67A/T80R/V86D/S89Y/R103Q/A212P/R218S limits assumed): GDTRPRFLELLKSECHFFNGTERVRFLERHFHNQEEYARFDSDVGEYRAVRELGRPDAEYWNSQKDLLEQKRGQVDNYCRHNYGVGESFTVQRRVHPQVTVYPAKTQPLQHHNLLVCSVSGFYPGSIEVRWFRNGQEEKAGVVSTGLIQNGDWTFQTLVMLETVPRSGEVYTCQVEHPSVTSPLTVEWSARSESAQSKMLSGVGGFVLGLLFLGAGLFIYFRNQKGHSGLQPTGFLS
Chain of HLA-DR DRB1*13:02 (P01903 26-254 limits assumed, other chains not shown): as the sequence (P01903 26-254, other chains not shown) above

Row | Compound | pIC50 [1] | pIC50 [2] | pIC50 [3] | pIC50 [4] | pIC50 [5] | pIC50 [6] | pIC50 [7] | pIC50 [8] | pIC50 [9] | pIC50 [10] | pIC50 [11] | pIC50 [12] | pIC50 [13] | pIC50 [14] | pIC50 [15] | pIC50 [16] | pIC50 [17]
1 | VLAGLLGVVSTVLLGGV [EXP1-P17] | 4.48 | 6.08 | 8.30 | 5.90 | 8.34 | 7.64 | 4.83 | 7.31 | 6.38 | 4.86 | 4.85 | 4.55 | 6.62 | 7.33 | 5.62 | 7.92 | –
2 | EPLIDVHDLISDMIK [EXP1-P10] | – | 4.51 | 4.54 | 4.56 | – | 5.22 | – | 5.55 | – | – | – | 5.10 | – | 5.96 | 6.79 | – | 5.17
3 | CC[C@H](C)[C@H](NC(=O)[C@@H](NC(=O)[C@H](Cc1ccccc1)NC(=O)[C@H](Cc1ccccc1)NC(=O)[C@H](CC(C)C)NC(=O)[C@H](C)NC(=O)[C@H](CC(C)C)NC(=O)[C@H](Cc1ccccc1)NC(=O)[C@H](Cc1ccccc1)NC(=O)[C@@H](NC(=O)[C@H](CO)NC(=O)[C@H](CC(C)C)NC(=O)[C@@H](NC(=O)[C@H](CCCCN)NC(=O)[C@@H](N)CCSC)[C@@H](C)CC)C(C)C)[C@@H](C)CC)C(=O)O [EXP1-P01] | – | 5.45 | 5.47 | 5.30 | 5.04 | 4.67 | – | 5.26 | 5.31 | 4.40 | 5.51 | – | 4.96 | 5.04 | 4.60 | 5.45 | –
4 | GVGLVLYNTEKGRHP [EXP1-P20] | 4.77 | 5.53 | 7.62 | 7.59 | – | 5.05 | 5.30 | 8.03 | 5.10 | 6.74 | 6.91 | – | 6.27 | 8.04 | 7.09 | – | 5.35
5 | GSGVSSKKKNKKGSG [EXP1-P07] | – | – | – | – | – | – | – | – | – | – | 5.70 | – | 5.34 | – | – | – | –
6 | SVFFLALFFIIFNKE [EXP1-P02] | – | 5.37 | 5.81 | 5.38 | 5.10 | 4.93 | – | 5.53 | 5.40 | – | 5.19 | 4.97 | 5.16 | 5.58 | 4.76 | 6.19 | 4.91
7 | NANPDADSESNGEPN [EXP1-P25] | – | 4.74 | 5.96 | 4.78 | – | 4.71 | – | 5.40 | 4.47 | 4.63 | – | – | 4.51 | 4.90 | 4.92 | – | –
